The target of data set [1] is NS2B-NS3 interactions (Nluc-E66stop/GCN) (Dengue virus type 2, UniProt P29990). Kind of data set: biochemical. It is filed as binding, DENV2.
The target in data set [2] is DENV2 His-NS2B/His-MBP-NS3 protease (Dengue virus type 2, UniProt P29990). Kind of data set: NS2B/NS3 protease inhibition assay. It is filed as biochemical.
Data set [3] is described as follows: Cytotoxicity, MTT or WST-8 cell proliferation assay. The conditions noted are these: human, A549 cells.
Data set [4] concerns DENV2. Description: microbe, parasite or virus in culture. The settings on record: Dengue virus.
Data set [5] relates to DENV2. The conditions noted are these: DENV2; Table 1.
In data set [6] the test system is ZIKV (Puerto Rico strain PRVABC59). Kind of data set: Viral titer reduction assay in A549 cells, ZIKV. It is filed as cell-based, Zika virus. The settings on record: for EC50 / EC90: Zika virus, A549.
Data set [7] relates to WNV. Description: microbe, parasite or virus in culture. The format is cell-based, West Nile virus. The conditions noted are these: West Nile virus, A549.
Data set [8] deals with ZIKV. Kind of data set: Time-of-addition experiment in infected A549 cells. The format is cell-based, Zika virus. The settings on record: temoporfin 90 nM, niclosamide 0.75 μM; viral plaque reduction assay.
For data set [9], the system named is JEV. Description: microbe, parasite or virus in culture. The format is cell-based, Japanese encephalitis virus. The conditions noted are these: Japanese encephalitis virus, A549; JEV.
Data set [10] addresses refolded His-NS3 protease domain (Dengue virus type 2, UniProt P29990). Kind of data set: Surface plasmon resonance (SPR). The format is binding.
For data set [11], the target named is DENV2 His-MBP-NS3 (Dengue virus type 2, UniProt P29990). Kind of data set: Protein thermal shift assay (PTSA). The settings on record: compound 4.8 μM, protein 2.5 μM. It is filed as binding. As to the method: PTSA was conducted using an Applied Biosystem 7500 Fast Real-Time PCR System (ThermoFisher Scientific) from 25 to 80° C. The DENV2 His-MBP-NS3 (final concentration of 2.5 μM in 1× PBS) was mixed with each compound to attain a 4.8 μM final concentration in 1.6% DMSO in the MicroAmp® Fast Optical 96-Well Reaction Plate (ThermoFisher Scientific). Thermal denaturation was monitored using SYPRO Orange (Life Technologies) according to manufacturer's manual. The denaturation of the proteins was monitored by following the increase of the fluorescence emitted by the probe that binds exposed hydrophobic regions of the denatured protein. The melting temperature (Tm) was calculated as the mid-log of the transition phase from the native to the denatured protein, using a Derivative model using the Protein Thermal Shift™ Software v1.0 (ThermoFisher Scientific). The reference unfolding temperature of proteins in 1.6% DMSO (Tm-DMSO) was subtracted from the values in the presence of each compounds (Tm-comp) to obtain thermal shifts, ΔTm=Tm-comp−Tm-DMSO. Compounds were considered to be binders when ΔTm>0.5° C.
Sequence of DENV2 His-MBP-NS3 (P29990 1476-1660 limits assumed): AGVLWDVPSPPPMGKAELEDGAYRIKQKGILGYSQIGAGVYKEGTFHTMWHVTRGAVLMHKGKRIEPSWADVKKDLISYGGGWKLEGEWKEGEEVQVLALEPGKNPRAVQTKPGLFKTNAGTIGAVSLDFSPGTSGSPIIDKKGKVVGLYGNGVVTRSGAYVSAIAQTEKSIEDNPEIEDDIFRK

For data set [12], the system named is YFV. Description: microbe, parasite or virus in culture. The format is cell-based, yellow fever virus. The conditions noted are these: Yellow fever virus, A549.
For data set [13], the target named is ZIKV GST-NS3 protease domain / FLAG-tagged ZIKV NS2B (Zika virus, UniProt Q32ZE1). Description: Competitive GST pull-down assay. The format is binding. The settings on record: pre-incubation with GST-NS3 beads; dose-dependent. As to the method: GST-NS3 or the GST-tag (10 μg) was immobilized on Glutathione sepharose-4B affinity beads (GE HealthCare). FLAG-tagged NS2B (10 μg) was incubated with the beads for 2 hours, and subjected to WB, using anti-FLAG (Genscript) and anti-GST antibodies (GE Healthcare). […] The assay was performed the same as in FIG. 32A, except that 2-fold dilution series of drugs were incubated with the GST-NS3 beads overnight prior to incubation with the FLAG-NS2B. […] The binding of NS2B to NS3 in the absence of each drag (DMSO control) was set as 100%. The relative binding of NS2B to NS3 in the presence of each drug was normalized to the DMSO control.
Sequence of ZIKV GST-NS3 protease domain / FLAG-tagged ZIKV NS2B (Q32ZE1 1499-1676): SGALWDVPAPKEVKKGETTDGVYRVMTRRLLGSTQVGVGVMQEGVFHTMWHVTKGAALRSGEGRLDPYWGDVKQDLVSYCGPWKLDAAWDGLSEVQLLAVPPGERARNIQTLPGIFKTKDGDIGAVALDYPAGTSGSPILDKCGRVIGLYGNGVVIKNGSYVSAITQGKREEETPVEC

Data set [14] has as its system ZIKV NS3 expression. Description: Western blot of viral protein expression. It is filed as cell-based. The settings on record: 48 hrs; dose-dependent. On the procedure:
The ability of compounds to inhibit viral protein expression was also tested by WB, using GTX133309 ZIKV α-NS3 antibody (GeneTex, Inc.).
Lower panel, NS3 expression normalized to the GAPDH loading control.

For data set [15], the system named is A549 cells. Kind of data set: Cytotoxicity, MTT or WST-8 cell proliferation assay. The conditions noted are these: Table 3.
The mark [16] stands for this setting: Table 1, read-out: NS2B-MBP NS3 protease IC50.
Setting [17] is: DENV2, A549, read-out: EC50 (DENV2).
Where [18] appears, read: NS2B-NS3 SLC signal, read-out: SLC IC50.

Counter-ions that a name gives are not always drawn. Like-named read-outs stand apart in the source and are kept apart here.

Sequence of DENV2 His-NS2B/His-MBP-NS3 protease (P29990 1476-1660 limits assumed): as the sequence (P29990 1476-1660 limits assumed) above
Sequence of NS2B-NS3 interactions (Nluc-E66stop/GCN) (P29990 1476-1660 limits assumed): as above
Sequence of refolded His-NS3 protease domain (P29990 1476-1653 limits assumed): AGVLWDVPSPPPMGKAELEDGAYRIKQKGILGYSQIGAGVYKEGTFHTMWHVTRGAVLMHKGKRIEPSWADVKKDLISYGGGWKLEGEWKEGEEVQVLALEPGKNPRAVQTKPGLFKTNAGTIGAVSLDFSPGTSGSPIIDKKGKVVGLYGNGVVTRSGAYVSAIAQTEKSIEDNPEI

`Cc1ccc(O)c(-n2nc3ccccc3n2)c1` [2-(2H-Benzotriazol-2-yl)-4 methylphenol] displayed a half-maximal inhibitory concentration (IC50) in data set [1] of 7.8 µM.
Still for that read-out and setting: to `Nc1ccc(N=Nc2ccccc2)cc1` [4-Aminoazobenzene] belongs 12.6 µM.
In the case of `O=C(O)c1cccc(-c2noc(-c3ccccc3F)n2)c1` [Ataluren], the IC50 in data set [2] (setting [16]) amounted to 21.6 µM; in data set [1], 0.1 µM. Also, the CC50 at 42 h in [3] (CC50, A549 cells, Table 1) was greater than 100 µM. Further, in data set [4] (setting [17]), the EC50 is less than 2 µM. Besides, the “Therapeutic index (TI) (CC50/EC50)” value in data set [5] is reported as greater than 50.
Take `CNC(=O)c1ccccc1Sc1ccc2c(/C=C/c3ccccn3)n[nH]c2c1` [Axitinib]: the 50% inhibitory concentration (IC50) in [1] is 5.3 µM.
On to `c1ccc(CCNc2nc(-c3ccccc3)cs2)cc1` [Fanetizole], for which the midpoint of inhibition in [1], the IC50, lay at 12.4 µM.
Turning to `COc1ccc2nc(NC(=O)Nc3ccccc3)sc2c1` [Frentizole], the 50% inhibitory concentration (IC50) in data set [1] turned out to be 0.38 µM.
Same read-out and setting: to `O=c1c(-c2ccc(O)cc2)coc2cc(O)cc(O)c12` [Genistein] belongs 7.2 µM.
Same read-out and setting: under `CC(C)Oc1ccc2c(=O)c(-c3ccccc3)coc2c1` [Ipriflavone] stands 5.3 µM.
With `CCN(CC)c1ccc(C(=C2C=CC(=[N+](CC)CC)C=C2)c2cc(S(=O)(=O)O)ccc2S(=O)(=O)[O-])cc1` [Isosulfan blue], the IC50 in data set [1] (setting [18]) worked out at 12.2 µM.
With `CN(C)c1ccc2nc3ccc(=[N+](C)C)cc-3sc2c1` [Methylene blue, [7-(dimethylamino)phenothiazin-3-ylidene]-dimethylazanium;chloride], the concentration for a half-maximal effect (EC50) in data set [6] (ZIKV*, without ambient light (in dark)) is 0.28 µM; in data set [7], 0.1 µM; in data set [4] (setting [17]), less than 2 µM. Also, the “titer of ZIKV in the absence of light exposure” value in data set [6] (in dark) is “significantly reduced the titer”. The concentration for half-maximal inhibition (IC50) in [2] (setting [16]) was determined as 41.6 µM; in data set [2] (Table 3, read-out: IC50-pro), 40 µM; in data set [1], 5.5 µM.
As to `O=C(Nc1ccc([N+](=O)[O-])cc1Cl)c1cc(Cl)ccc1O` [Niclosamide, 5-chloro-N-(2-chloro-4-nitrophenyl)-2-hydroxybenzamide], the “effectiveness of addition at 24-hour post-infection versus at the time of infection” value in data set [8] is “almost equally effective”. For the same molecule, the half-maximal effective concentration (EC50) in [9] is 1.02 ± 0.08 µM; in data set [6] (ZIKV), 0.48 ± 0.06 µM; in [7] (WNV, read-out: EC50), 0.54 ± 0.17 µM; in data set [12], 0.84 ± 0.02 µM; in data set [4] (DENV2, A549), 0.55 ± 0.05 µM; in data set [4] (setting [17]), 0.55 µM. The EC90 in data set [9] came to 2.4 µM; in [6] (ZIKV) it was 1.9 µM; in [7] (WNV) it was 2.3 µM; in [12], 1.9 µM; in data set [4] (DENV2, A549), 2.3 µM. Also, binding in data set [10] was put at a Kd of 6.4 µM. Moreover, in data set [11], the “Tm compared to the DMSO control” value is reported as “increased Tm”. Further, the 50% inhibitory concentration (IC50) worked out at 12.3 µM in data set [2] (setting [16]); 12.3 ± 0.6 µM in data set [2] (Table 3, read-out: IC50-pro); 0.7 µM in data set [1]. Further, in [13], the “binding of FLAG-NS2B to GST-NS3” value is “significantly decreased the binding”. Also, the “expression of ZIKV NS3 (western blot)” value in data set [14] is given as “significantly inhibited”. Also, the “Therapeutic index (TI) (CC50/EC50)” value in [5] is greater than 182.
For `CC(=O)Oc1ccccc1C(=O)Nc1ncc([N+](=O)[O-])s1` [Nitazoxanide, [2-[(5-nitro-1,3-thiazol-2-yl)carbamoyl]phenyl]acetate], the EC50 is 0.39 µM in [9], 1.48 ± 0.18 µM in data set [6] (ZIKV) and less than 10 µM in data set [4] (setting [17]). In [6] (ZIKV), this molecule returned a concentration for an effect of 90% (EC90) of 4 µM. Also, the equilibrium dissociation constant (Kd) in data set [10] (25° C., 1:1 Langmuir binding model, read-out: dissociation constant (KD)) stood at 7.3 µM. The 50% inhibitory concentration (IC50) turned out to be 15.9 µM in data set [2] (setting [16]); 15.9 ± 0.9 µM in data set [2] (Table 3, read-out: IC50-pro); 3.4 µM in [1]. The CC50 at 42 h in [3] (CC50, A549 cells, Table 1) is greater than 100 µM; in data set [3] (CC50, Table 3), 77 ± 7.2 µM. In addition, in [15], half-maximal cytotoxicity (CC50) was put at 60 µM. For the same molecule, the “Therapeutic index (TI) (CC50/EC50)” value in data set [5] is reported as greater than 0.
As to `CC(C)CCOC(=O)c1ccc(N(C)C)cc1` [Padimate], the IC50 in data set [1] (setting [18]) was 14.4 µM.
Regarding `Nc1ccc(/N=N/c2ccccc2)c(N)n1` [Phenazopyridine hydrochloride], the half-inhibitory concentration (IC50) in data set [1] was determined as 13.2 µM.
Still for that read-out and setting: to `Clc1ccccc1-c1nc(-c2ccncc2)no1` [Pifexole] belongs 7.5 µM.
The molecule `Oc1ccc(C=Cc2cc(O)cc(O)c2)cc1` [Resveratrol] had an IC50 in [1] of 9 µM.
`O=C(Nc1ncc([N+](=O)[O-])s1)c1cccs1` [Tenonitrozole]: inhibition in [1] was half-maximal at 4.9 µM (IC50).
As to `Cc1cc2nc3ccc(N(C)C)cc3[s+]c2cc1N` [Toluidine blue], the concentration for half-maximal inhibition (IC50) in [1] (setting [18]) came out at 14.3 µM.
Take `CS(=O)(=O)c1ccc(-c2cn3ccccc3n2)cc1` [Zolimidine]: the half-inhibitory concentration (IC50) in data set [1] was 12.1 µM.
Take Amlenasox: the IC50 in data set [1] (setting [18]) worked out at 4.7 µM.

Source of the values: patent US20230102223A1, “PHARMACEUTICAL COMPOSITIONS WITH ANTIFLAVIVIRAL ACTIVITY” (HEALTH RESEARCH, INC., priority 2016, published 2023).
